Measurements reported in PubChem BioAssay AID192 (DTP/NCI, 2004).
“And” between values parts separate entries of the source, which are not always exact repeats. Equal entries are not always repeated. Inconclusive results and toxic doses are left out.

Tested on: BDF1 mice, B16 melanoma ip, median survival T/C
Assay: NCI In Vivo Anticancer Drug Screen. Data for tumor model B16 Melanoma (intraperitoneal) in B6D2F1 (BDF1) mice
Settings: endpoint: median survival time, higher = longer survival
How it was run: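 Survival or tumor size is measured after treatment of tumor-bearing mice and normalised to the vehicle-treated control group.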

[1] = dose: 12.5 mg/kg/injection, schedule: Q01DX009 (ip), vehicle: Klucel (hydroxypropylcellulose) (HPC)
[2] = dose: 25.0 mg/kg/injection, schedule: Q01DX009 (ip), vehicle: Klucel (hydroxypropylcellulose) (HPC)
[3] = dose: 50.0 mg/kg/injection, schedule: Q01DX009 (ip), vehicle: Klucel (hydroxypropylcellulose) (HPC)
[4] = dose: 100.0 mg/kg/injection, schedule: Q01DX009 (ip), vehicle: Klucel (hydroxypropylcellulose) (HPC)
[5] = dose: 200.0 mg/kg/injection, schedule: Q01DX009 (ip), vehicle: Klucel (hydroxypropylcellulose) (HPC)
[6] = dose: 400.0 mg/kg/injection, schedule: Q01DX009 (ip), vehicle: Klucel (hydroxypropylcellulose) (HPC)
[7] = dose: 12.5 mg/kg/injection, schedule: Q01DX009 (ip), vehicle: saline
[8] = dose: 25.0 mg/kg/injection, schedule: Q01DX009 (ip), vehicle: saline
[9] = dose: 50.0 mg/kg/injection, schedule: Q01DX009 (ip), vehicle: saline
[10] = dose: 100.0 mg/kg/injection, schedule: Q01DX009 (ip), vehicle: saline with Tween-80
[11] = dose: 200.0 mg/kg/injection, schedule: Q01DX009 (ip), vehicle: saline with Tween-80
[12] = dose: 400.0 mg/kg/injection, schedule: Q01DX009 (ip), vehicle: saline with Tween-80

SMILES: CC(=O)N(C(C)=O)c1ccc(N=Nc2ccccc2C)cc1C
- T/C [1]: 94 % of control
- T/C [2]: 117 % of control
- T/C [3]: 100 % of control
- T/C [4]: 100 % of control
- T/C [5]: 87 % of control

SMILES: O=C(Cl)COc1cccc2ccccc12
- T/C [4]: 103 % of control
- T/C [5]: 110 % of control
- T/C [6]: 106 % of control

SMILES: Cc1ccc(S(=O)(=O)NC(CSSCC(NS(=O)(=O)c2ccc(C)cc2)C(=O)OC(C)(C)C)C(=O)OC(C)(C)C)cc1 (stereo unspecified)
- T/C [3]: 107 % of control

SMILES: OCCN1CCN(CCCN2c3ccccc3Sc3cccnc32)CC1
- T/C (dose: 9.37 mg/kg/injection, schedule: Q01DX009 (ip), vehicle: saline): 89 % of control
- T/C [7]: 93 % of control
- T/C (dose: 18.75 mg/kg/injection, schedule: Q01DX009 (ip), vehicle: saline): 107 % of control
- T/C [8]: 113 % of control
- T/C (dose: 37.5 mg/kg/injection, schedule: Q01DX009 (ip), vehicle: saline): 105 % of control
- T/C (dose: 75.0 mg/kg/injection, schedule: Q01DX009 (ip), vehicle: saline): 102 % of control

SMILES: O=c1cc[nH]c(=O)o1
- T/C (dose: 6.25 mg/kg/injection, schedule: Q01DX009 (ip), vehicle: water): 104 % of control
- T/C (dose: 12.5 mg/kg/injection, schedule: Q01DX009 (ip), vehicle: water): 111 % of control
- T/C (dose: 25.0 mg/kg/injection, schedule: Q01DX009 (ip), vehicle: water): 108 % of control

SMILES: CC(C)(O)C(I)C[n+]1ccccc1 (stereo unspecified)
- T/C (dose: 100.0 mg/kg/injection, schedule: Q04DX003 (ip), vehicle: saline): 109 % of control
- T/C (dose: 200.0 mg/kg/injection, schedule: Q04DX003 (ip), vehicle: saline): 101 % of control
- T/C (dose: 400.0 mg/kg/injection, schedule: Q04DX003 (ip), vehicle: saline): 114 % of control

SMILES: CCCCCCCCC(=O)N1CC(C)OC(C)C1 (stereo unspecified)
- T/C [4]: 103 % of control
- T/C [5]: 89 % of control
- T/C [6]: 94 % of control

SMILES: CN(C)N=Nc1ccc(C(=O)O)cc1
- T/C [8]: 113 % of control
- T/C [9]: 119 % of control

SMILES: ClCCCCCCCCCCc1ccccc1
- T/C [1]: 90 % of control
- T/C [2]: 90 % of control
- T/C [3]: 89 % of control

SMILES: Cc1cc(NC(=O)CCc2ccc(N3C(N)=NC(N)=NC3(C)C)cc2)ccc1S(=O)(=O)F
- T/C (dose: 50.0 mg/kg/injection, schedule: Q01DX009 (ip), vehicle: saline sonified): 118 % of control
- T/C (dose: 100.0 mg/kg/injection, schedule: Q01DX009 (ip), vehicle: saline sonified): 94 % of control
- T/C (dose: 200.0 mg/kg/injection, schedule: Q01DX009 (ip), vehicle: saline sonified): 100 % of control

SMILES: CN(C)CC(CN1c2ccccc2Sc2ccccc21)N(C)C (stereo unspecified)
- T/C (dose: 3.12 mg/kg/injection, schedule: Q01DX009 (ip), vehicle: saline): 102 % of control
- T/C (dose: 6.25 mg/kg/injection, schedule: Q01DX009 (ip), vehicle: saline): 107 % of control
- T/C [7]: 107 % of control
- T/C [8]: 120 % of control
- T/C [9]: 105 % of control

SMILES: O=Cc1ccc(/C=C2\C=Cc3ccccc32)cc1
- T/C [10]: 97 % of control

SMILES: CNC(=O)Oc1coc(CCl)cc1=O
- T/C (dose: 12.0 mg/kg/injection, schedule: Q01DX009 (ip), vehicle: Klucel (hydroxypropylcellulose) (HPC)): 93 % of control
- T/C (dose: 18.0 mg/kg/injection, schedule: Q01DX009 (ip), vehicle: Klucel (hydroxypropylcellulose) (HPC)): 96 % of control
- T/C (dose: 27.0 mg/kg/injection, schedule: Q01DX009 (ip), vehicle: Klucel (hydroxypropylcellulose) (HPC)): 96 % of control
- T/C (dose: 40.0 mg/kg/injection, schedule: Q01DX009 (ip), vehicle: Klucel (hydroxypropylcellulose) (HPC)): 106 % of control

SMILES: N/C(=N\O)c1cn(C2OC(CO)C(O)C2O)c2ncnc(N)c12 (stereo unspecified)
- T/C (dose: 1.0 mg/kg/injection, schedule: Q01DX009 (ip), vehicle: saline): 115 % of control
- T/C (dose: 2.0 mg/kg/injection, schedule: Q01DX009 (ip), vehicle: saline): 117 % of control
- T/C (dose: 4.0 mg/kg/injection, schedule: Q01DX009 (ip), vehicle: saline): 121 % of control

SMILES: Cc1cc(C(C)(CC(C)C)c2ccc(O)c(C)c2)ccc1O
- T/C (dose: 25.0 mg/kg/injection, schedule: Q01DX009 (ip), vehicle: saline with Tween-80): 107 % of control
- T/C (dose: 50.0 mg/kg/injection, schedule: Q01DX009 (ip), vehicle: saline with Tween-80): 94 % of control

SMILES: CCCCc1ccc(-n2c(C)c(COC(=O)NC)c(COC(=O)NC)c2C)cc1
- T/C [2]: 159 % of control

SMILES: Cc1ccc(C)c(NC(=O)c2ccccc2C(=O)O)c1
- T/C [4]: 94 % of control
- T/C [5]: 91 % of control

SMILES: C/C=C/c1ccc(OC(C)=O)c(OC)c1
- T/C [10]: 106 % of control
- T/C [11]: 97 % of control
- T/C [12]: 100 % of control

SMILES: C[CH2][Ge]1([CH2]C)[CH2]CC2(CCN(CCCN(C)C)C2)C[CH2]1
- T/C (dose: 8.0 mg/kg/injection, schedule: Q02DX009 (ip), vehicle: saline): 102 % of control
- T/C (dose: 16.0 mg/kg/injection, schedule: Q02DX009 (ip), vehicle: saline): 106 % of control
- T/C (dose: 32.0 mg/kg/injection, schedule: Q02DX009 (ip), vehicle: saline): 102 % of control

SMILES: COC1C(O)CC(OC2CC(OC3CC(O[C@@H]4C(=O)c5c(cc6cc(OC7CC(OC8CC(O)C(O)C(C)O8)C(O)C(C)O7)c(C)c(O)c6c5O)C[C@H]4[C@H](OC)C(=O)[C@@H](O)[C@@H](C)O)OC(C)C3O)OC(C)C2O)OC1C (stereo partly specified)
- T/C (dose: 188.0 micrograms/kg/injection, schedule: Q01DX009 (ip), vehicle: water): 106 % of control
- T/C (dose: 375.0 micrograms/kg/injection, schedule: Q01DX009 (ip), vehicle: water): 105 % of control
- T/C (dose: 750.0 micrograms/kg/injection, schedule: Q01DX009 (ip), vehicle: water): 121 % of control

SMILES: C1CN1P1(N2CC2)=NP(N2CC2)(N2CC2)=NP(N2CC2)(N2CC2)=N1
- T/C (dose: 0.25 mg/kg/injection, schedule: Q02DX009 (ip), vehicle: saline with Tween-80): 87 % of control
- T/C (dose: 0.5 mg/kg/injection, schedule: Q01DX009 (ip), vehicle: saline with Tween-80): 108 % of control
- T/C (dose: 0.5 mg/kg/injection, schedule: Q02DX009 (ip), vehicle: saline with Tween-80): 101 % of control
- T/C (dose: 1.0 mg/kg/injection, schedule: Q01DX009 (ip), vehicle: saline with Tween-80): 124 % of control
- T/C (dose: 1.0 mg/kg/injection, schedule: Q02DX009 (ip), vehicle: saline with Tween-80): 87 % of control and 94 % of control
- T/C (dose: 2.0 mg/kg/injection, schedule: Q01DX009 (ip), vehicle: saline with Tween-80): 123 % of control
- T/C (dose: 2.0 mg/kg/injection, schedule: Q02DX009 (ip), vehicle: saline with Tween-80): 99 % of control and 122 % of control
- T/C (dose: 8.0 mg/kg/injection, schedule: Q01DX009 (ip), vehicle: saline with Tween-80): 170 % of control
- T/C (dose: 8.0 mg/kg/injection, schedule: Q02DX009 (ip), vehicle: saline with Tween-80): 153 % of control

SMILES: CCCCCCCCCCCCCCCCCS(=O)S(=O)O (stereo unspecified)
- T/C [10]: 113 % of control
- T/C [11]: 97 % of control
- T/C [12]: 95 % of control
